Assay results as given in US20100168192A1, “BENZISOXAZOLE DERIVATIVES AS POTASSIUM CHANNEL MODULATORS FOR THE TREATMENT OF E.G. RESPIRATORY DISEASES, EPILEPSY AND CONVULSIONS” (NeuroSearch A/S, priority 2007, published 2010).

What was measured:
BK channels = biological target: T1, BK channels (Homo sapiens, UniProt Q12791); assay: BK channel opening activity, two-electrode voltage clamp in Xenopus laevis oocytes; assay type: cell-based
T1 construct: expressed in transfected cells; host or cells: Xenopus laevis oocytes
Protocol: In this example the BK channel opening activity of Compound 1 (i.e. N-(2-Benzo[d]isoxazol-3-yl-acetyl)-methanesulfonamide) is determined using BK channels heterologously expressed in Xenopus laevis oocytes.
The electrical current through the BK channel was measured using conventional two-electrode voltage clamp. BK currents were activated by repeating ramp protocols. In brief, the membrane potential was continuously changed from −120 mV to +120 mV within a 2 s period. The threshold for BK activation is approximately +30 mV under control conditions. Compounds were applied for 100 s during which the ramp protocol was repeated 10 times with 10 s intervals. In between the ramp protocols the membrane potential was clamped at −80 mV. The first three compound applications were control blanks where the current level is allowed to stabilize.
In order to evaluate the ability of the compounds to shift the BK activation curve towards lower membrane potentials, the BK current was transformed into conductance by using Ohm's law g=I/(Ememb−Erev), where g is the conductance, I is the current, Ememb is the membrane potential and Erev is the reversal potential. The extracellular solution for these experiments contained 2.5 mM K+ and the intracellular K+ concentration of an oocyte was estimated to be 100 mM. Under those conditions, Nernst equation predicts a reversal potential of Erev=−93.2 mV. The control conductance level at a membrane potential of +100 mV was calculated, and the compound effect was evaluated as the potential difference, ΔV, to the membrane potential at which the same conductance level was obtained in the presence of compound.
The concentration response curve for this potential difference was fitted to the sigmoidal logistic equation: ΔV=ΔVmax/(1+(EC50/[compound])^n), where ΔVmax represents the maximal left shift of the BK activation curve, EC50 is the concentration causing a half maximal response, and n is the slope coefficient.

T1 sequence (Q12791 whole entry): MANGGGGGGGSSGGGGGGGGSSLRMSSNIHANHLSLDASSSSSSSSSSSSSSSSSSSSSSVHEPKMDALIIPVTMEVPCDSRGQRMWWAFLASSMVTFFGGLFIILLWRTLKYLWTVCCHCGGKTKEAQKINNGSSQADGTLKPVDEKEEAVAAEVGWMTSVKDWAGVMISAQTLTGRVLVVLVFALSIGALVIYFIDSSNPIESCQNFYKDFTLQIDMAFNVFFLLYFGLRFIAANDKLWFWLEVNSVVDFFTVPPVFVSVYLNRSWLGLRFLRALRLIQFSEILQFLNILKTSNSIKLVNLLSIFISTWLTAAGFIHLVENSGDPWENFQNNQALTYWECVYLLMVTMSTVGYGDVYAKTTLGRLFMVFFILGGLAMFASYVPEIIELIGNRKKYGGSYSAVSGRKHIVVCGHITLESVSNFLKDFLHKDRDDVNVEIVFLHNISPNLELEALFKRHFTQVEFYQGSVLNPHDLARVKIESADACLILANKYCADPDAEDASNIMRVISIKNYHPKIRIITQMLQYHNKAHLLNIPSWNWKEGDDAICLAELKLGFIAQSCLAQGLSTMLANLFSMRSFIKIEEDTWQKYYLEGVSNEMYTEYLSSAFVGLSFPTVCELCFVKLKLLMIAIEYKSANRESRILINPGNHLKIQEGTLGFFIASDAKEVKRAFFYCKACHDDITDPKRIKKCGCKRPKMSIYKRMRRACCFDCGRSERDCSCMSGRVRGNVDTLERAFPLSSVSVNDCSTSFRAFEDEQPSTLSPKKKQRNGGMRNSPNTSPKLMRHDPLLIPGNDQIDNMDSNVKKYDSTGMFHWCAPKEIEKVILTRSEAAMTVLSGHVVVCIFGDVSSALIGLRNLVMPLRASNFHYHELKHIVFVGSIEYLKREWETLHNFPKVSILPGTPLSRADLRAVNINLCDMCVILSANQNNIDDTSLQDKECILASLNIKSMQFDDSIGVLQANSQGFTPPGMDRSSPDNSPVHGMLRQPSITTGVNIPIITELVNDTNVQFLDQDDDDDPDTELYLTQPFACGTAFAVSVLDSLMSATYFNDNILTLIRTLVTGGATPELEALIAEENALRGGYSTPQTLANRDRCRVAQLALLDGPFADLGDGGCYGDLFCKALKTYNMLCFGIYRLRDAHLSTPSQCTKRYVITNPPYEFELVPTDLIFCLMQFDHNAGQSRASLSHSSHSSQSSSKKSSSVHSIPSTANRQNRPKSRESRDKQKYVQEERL

ΔVmax, maximal left-shift of the BK activation curve (BK channels; BK channels heterologously expressed in Xenopus laevis oocytes, 0.01-31.6 μM, fitted to sigmoidal logistic equation): −15 mV
EC50 (BK channels; BK channels heterologously expressed in Xenopus laevis oocytes, 0.01-31.6 μM, ΔV at control conductance level of +100 mV, fitted to sigmoidal logistic equation, read-out: EC50 for the left-shift of the BKCa-activation curve): 300 nM
BK current level at depolarizing potentials (BK channels; increasing concentrations (0.01-31.6 μM), ramp protocol −120 mV to +120 mV, Xenopus laevis oocytes): marked increase in the current level
melting point: 167 to 171 °C
Structure (SMILES): CS(=O)(=O)NC(=O)Cc1noc2ccccc12 [Compound 1, N-(2-Benzo[d]isoxazol-3-yl-acetyl)-methanesulfonamide]
